Literature values as cited in patent US6676926B2, “Radiopharmaceuticals for diagnosing Alzheimer's disease” (Schering Aktiengesellschaft, priority 2000, dated 2004).

Columns and labels:
synthetic-amyloid = conditions: in vitro
[1] = normal mice

Structure (SMILES): O=C(O)c1cc(/N=N/c2ccc(-c3ccc(/N=N/c4ccc(O)c(C(=O)O)c4)cc3)cc2)ccc1O [Chrysamine G]
- binding to synthetic amyloid (synthetic-amyloid): binds synthetic-amyloid well
- blood-brain barrier passage [1]: crosses the blood-brain barrier
